Laboratory results as given in patent publication US20210205253A1, “Use Of Stearic Acid For Preventing Or Treating Pulmonary Fibrosis” (THE ASAN FOUNDATION, priority 2018, published 2021).

Tested on: pulmonary fibroblasts
Experiment: Collagen 1 and α-SMA immunoblotting in pulmonary fibroblasts
Format: cell-based, human
Settings: stearic acid 40 uM/mL
Method: After epithelial cells and fibroblasts were aliquoted into 6-well plates at 2×10^4 cells/well and a stabilization time was imparted for 24 hours, and 15 hours after deficiency, cells were treated with stearic acid (40 uM/mL), TGF-β (5 ng/mL), and stearic acid (40 uM/mL)+TGF-β (5 ng/mL) in this order. After the cells were cultured in an incubator for 24 hours after the treatment, the next-step experiment was performed. After 24 hours of cell stimulation by the method of Example 1-3, the cells were washed twice with iced phosphate buffer saline (PBS), a protein lysate solution was put thereinto, the cells were scraped out and collected in a 1.5 ml EP tube, and then the cells were lysed in a grinder for 30 seconds. Next, centrifugation was performed at a speed of 14,000 rpm at 4° C. for 20 minutes, and the protein was quantified using the BCA analysis method. Thereafter, the protein sample was boiled at 95° C. for 10 minutes for the same amount of protein, and then the expression levels of collagen type 1 and α-SMA were measured by immunoblotting. After the expression level of the protein was confirmed, a significance test between samples was performed using a statistical program. […] The collagen 1/actin or α-SMA/actin indicated on the y-axis of FIGS. 4A and 4B means a value obtained by correcting the protein amount of collagen 1 or α-SMA with the amount of actin, which is an intracellular control protein. […] Further, referring to the test method of obtaining the results in FIG. 4, after pulmonary fibroblasts were treated with palmitic acid at various concentrations (10, 20, and 40 μM/mL), the levels of collagen 1 (collagen 1/actin; FIG. 6A) and α-SMA (α-SMA/actin; FIG. 6B), which are intracellular fibrosis markers, were measured, and shown as relative values to the control (CTL; medium only). […] 40 uM/mL stearic acid, 10 uM/mL palmitic acid, and 5 ng/mL TGF-β were used in the experiment, respectively. […] In addition, referring to the test method of obtaining the results in FIG. 7, the experiment was performed using oleic acid (OA) instead of palmitic acid, and the levels of collagen 1 (collagen 1/actin; FIG. 8A) and α-SMA (α-SMA/actin; FIG. 8B) were measured and shown as relative values to the control (CTL; medium only). 40 uM/mL stearic acid, 40 uM/mL oleic acid, and 5 ng/mL TGF-β were used in the experiment, respectively.

[1] = increase by oleic acid 40 uM/mL
[2] = increase by palmitic acid 10 uM/mL

CCCCCCCCCCCCCCCCCC(=O)O [stearic acid]
significantly inhibited: collagen 1/actin (increase by TGF-β 5 ng/mL) | α-SMA/actin (increase by TGF-β 5 ng/mL) | collagen 1/actin [1] | α-SMA/actin [1] | collagen 1/actin [2] | α-SMA/actin [2]
